Laboratory results taken from patent US20250115926A1, “DEREGULATED DHS AND TYRA ENZYMES OF GRASSES ENABLE EFFICIENT PRODUCTION OF BOTH TYROSINE AND PHENYLALANINE” (Wisconsin Alumni Research Foundation, priority 2023, published 2025).
Values belong to the molecule of their own block, whether it stands above or below them.

Columns and labels:
grass DHS enzymes = experiment: DHS activity: effector inhibition; format: biochemical; conditions: 0.5 mM (FIGS. 4, 15, 17)
Description: (§1) As recent studies have shown that plant DHS enzymes are feedback-inhibited by multiple effector molecules^15, 16, we tested the effect of AAAs and another 14 related metabolites, including various intermediates of the shikimate pathway and the pathways downstream of AAAs, on Brachypodium DHS enzymes.
(§2) The DHS assay for UHPLC-MS quantification was set up using the same settings as described in the previous paragraph for the UV-based DHS assay, which guaranteed at least 10 minutes of reaction linearity. After a 10-minute incubation, 20 μL of the reactions (out of a total volume of 50 μL) were mixed into 80 μL of methanol, vortexed and transferred to vials for injection. Analysis of DAHP by UHPLC-MS was conducted using the same chromatographic settings as described for the UHPLC-MS analysis of soluble metabolites and compared with an authentic DAHP standard (Sta. Cruz biotechnology, cat. no. sc-216432).

[1] = test system: recombinant Sorghum DHS enzymes; experiment: DHS activity: effector inhibition; format: biochemical, Sorghum bicolor; conditions: 0.5 mM (FIG. 17)
Description: (§3) In contrast, BdDHS1b was not inhibited by arogenate even up to 2.5 mM. In fact, DHS1b activity increased in the presence of high concentrations of arogenate (FIG. 4F), likely due to high concentrations of contaminant NaCl present in the arogenate preparation (FIG. 16). Under acidic conditions, arogenate is known to undergo a spontaneous dehydration and decarboxylation into […]. […] Like in Brachypodium DHS enzymes, 0.5 mM arogenate inhibited SbDHS1a and SbDHS2 at ˜50% and ˜40%, respectively, but had no effect on SbDHS1b.

[2] = target: Brachypodium distachyon BdDHS1a, SEQ ID NO: 1, recombinant (Brachypodium distachyon, UniProt I1GSB3); experiment: DHS activity: kinetics and effector inhibition
Sequence of Brachypodium distachyon BdDHS1a, SEQ ID NO: 1, recombinant (I1GSB3 46-537): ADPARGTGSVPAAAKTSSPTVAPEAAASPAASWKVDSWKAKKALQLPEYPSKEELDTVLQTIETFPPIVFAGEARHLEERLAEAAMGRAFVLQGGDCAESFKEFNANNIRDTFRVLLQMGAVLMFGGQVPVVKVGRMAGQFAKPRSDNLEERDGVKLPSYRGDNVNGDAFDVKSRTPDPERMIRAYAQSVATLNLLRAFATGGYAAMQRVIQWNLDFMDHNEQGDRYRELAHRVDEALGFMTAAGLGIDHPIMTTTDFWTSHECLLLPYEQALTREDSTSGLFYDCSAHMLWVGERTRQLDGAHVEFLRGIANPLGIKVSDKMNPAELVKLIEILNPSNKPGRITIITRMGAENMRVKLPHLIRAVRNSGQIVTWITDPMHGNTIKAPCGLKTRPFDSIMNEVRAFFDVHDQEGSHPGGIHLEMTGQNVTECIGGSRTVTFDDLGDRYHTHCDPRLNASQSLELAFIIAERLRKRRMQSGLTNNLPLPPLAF
From the text: (§4) To examine their functional properties, the recombinant DHS enzymes of Brachypodium were produced and characterized in vitro.
as §1, §2

[3] = target: Brachypodium distachyon BdDHS1b, SEQ ID NO: 3, recombinant (Brachypodium distachyon, UniProt I1H4W3); experiment: DHS activity: kinetics and effector inhibition; format: biochemical
Sequence of Brachypodium distachyon BdDHS1b, SEQ ID NO: 3, recombinant (I1H4W3 37-542): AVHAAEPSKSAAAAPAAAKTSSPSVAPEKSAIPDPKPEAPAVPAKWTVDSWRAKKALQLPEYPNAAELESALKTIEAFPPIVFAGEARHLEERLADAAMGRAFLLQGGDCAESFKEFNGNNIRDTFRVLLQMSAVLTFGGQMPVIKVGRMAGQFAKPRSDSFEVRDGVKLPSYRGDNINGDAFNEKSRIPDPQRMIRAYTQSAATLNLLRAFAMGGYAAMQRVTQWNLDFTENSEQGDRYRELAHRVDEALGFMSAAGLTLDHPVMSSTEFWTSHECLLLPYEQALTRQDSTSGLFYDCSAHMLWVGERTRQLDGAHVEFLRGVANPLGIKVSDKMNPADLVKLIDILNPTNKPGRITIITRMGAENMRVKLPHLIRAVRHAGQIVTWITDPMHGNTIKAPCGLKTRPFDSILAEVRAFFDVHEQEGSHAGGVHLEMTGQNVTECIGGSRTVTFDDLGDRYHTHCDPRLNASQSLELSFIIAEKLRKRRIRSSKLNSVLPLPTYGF
From the text: as §4, §1, §2

[4] = target: Brachypodium distachyon BdDHS2, SEQ ID NO: 5, recombinant (Brachypodium distachyon, UniProt I1I809); experiment: DHS activity: kinetics and effector inhibition; format: biochemical
Sequence of Brachypodium distachyon BdDHS2, SEQ ID NO: 5, recombinant (I1I809 31-503): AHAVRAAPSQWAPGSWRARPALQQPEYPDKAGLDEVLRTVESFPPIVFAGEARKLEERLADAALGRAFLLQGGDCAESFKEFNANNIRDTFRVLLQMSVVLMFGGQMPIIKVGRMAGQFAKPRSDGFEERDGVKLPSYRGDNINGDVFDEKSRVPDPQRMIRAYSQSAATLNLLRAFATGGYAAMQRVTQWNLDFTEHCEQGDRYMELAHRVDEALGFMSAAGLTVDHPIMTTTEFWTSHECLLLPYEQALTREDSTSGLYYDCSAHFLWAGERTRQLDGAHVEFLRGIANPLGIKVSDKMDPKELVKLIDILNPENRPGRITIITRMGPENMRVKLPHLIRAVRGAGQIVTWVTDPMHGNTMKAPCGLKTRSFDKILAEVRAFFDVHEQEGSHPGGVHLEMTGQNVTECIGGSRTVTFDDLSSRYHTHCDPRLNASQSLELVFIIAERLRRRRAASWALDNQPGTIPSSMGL
From the text: as §4, §1, §2

[5] = DHS activity with combinations of effectors; format: biochemical; conditions: 0.15 mM each effector (FIG. 19)
Description: DHS effector molecules can have synergistic effects when combined in vitro^51. To explore this possibility, we tested the impact of different combinations of tryptophan, tyrosine, arogenate and chorismate, at 0.15 mM each, on the activity of Brachypodium DHS enzymes.

[6] = test system: Nicotiana benthamiana leaves; experiment: Transient expression of Brachypodium DHS in Nicotiana benthamiana leaves (AtRbcS3B promoter), UHPLC-MS; format: in vivo; conditions: three days after transient expression
Description: Agrobacterium tumefaciens strain GV3101 transformed with the plant expression constructs were grown at 28° C. for 24 to 36 hours in 10 mL of LB liquid media containing the corresponding antibiotics. The saturated cultures were spun down at 3,000 g for 5 minutes at room temperature and washed twice with 3 mL of induction media (IM; 10 mM MES [2-(N-morpholino) ethanesulfonic acid] buffer pH 5.6, 0.5% glucose, 2 mM NaH2PO4, 20 mM NH4Cl, 1 mM MgSO4, 2 mM KCl, 0.1 mM CaCl2), 0.01 mM FeSO4, and 0.2 mM acetosyringone). After washing, bacteria cultures were incubated in IM for 2 to 3 hours at room temperature in the dark, pelleted at 3000 g for 5 minutes, and resuspended into 3 mL of 10 mM MES buffer pH 5.6 with 0.2 mM acetosyringone. OD600nm was adjusted to a final density of 0.25 units for pAGM4673::TyrA (FIG. 3F) and pICH47822::DHS (FIG. 5A) infiltration, or 0.5 units for pAGM4673::TyrA-DHS co-expression constructs (FIG. 5B) using 10 mM MES buffer pH 5.6 with 0.2 mM acetosyringone. For infiltration of pICH47822::DHS constructs, the Agrobacterium suspensions were adjusted to OD600nm=0.5 and mixed with an equal volume of a suspension of an Agrobacterium clone transformed with pICH4780::p19 under control of the Arabidopsis ubiquitin ligase promoter adjusted to OD600nm=0.5, resulting in a final mixture of 0.25 OD600nm units for each construct. […] Nicotiana benthamiana plants of around 4-weeks-old were infiltrated close to the end of the light period into four different spots per plant, distributed into two leaves at two infiltrations per leaf, with each individual spot corresponding with a different construct/treatment. In total, each construct was infiltrated as 5 or 6 independent replicates into different plants following a randomized pattern. Samples consisting of the infiltrated leaf limbs, without the main veins, were harvested at ˜72 hours post infiltration and subjected to HPLC or UHPLC-MS analysis (see details below).
Around 30-40 mg of pulverized frozen plant tissue were resuspended into 400 μL of chloroform:methanol (1:2) for ˜1 hour with regular vortexing, followed by centrifugation at 20,000 g for 5 minutes at room temperature. The whole supernatant was transferred to a fresh tube, mixed with 125 μL of chloroform, 300 μL of water, and spun down at 15,000 g for 5 minutes for phase separation. The upper, aqueous phase was recovered and dried down for 4 hours to overnight in a speed-vac at 40° C. The dried pellets were resuspended into 100 μL of methanol 80%, spun down at 20,000 g for 5 minutes, and the supernatant transferred to vials for injection. All reagents used for the extraction were UHPLC-MS grade.
Aromatic amino acids and shikimate were detected using a Vanquish Horizon Binary UHPLC (Thermo Scientific) coupled to a Q Exactive mass spectrometer (Thermo Scientific). Two microliters of the sample were analyzed using a InfinityLab Poroshell 120 HILIC-Z column (150×2.1 mm, 2.7-μm particle size; Agilent) in a gradient of 5 mM ammonium acetate/0.2% acetic acid buffer in water (solvent A) and 5 mM ammonium acetate/0.2% acetic acid buffer in 95% acetonitrile (solvent B) at a flow rate of 0.45 mL/min and column temperature of 40° C. The phase B gradient was: 0-2 min, 94%; 2-9 min, 94-88%; 9-19 min, 88-71%; 19-20 min, 71-20%, 20-21.5 min, 20%; 21.5-22 min, 20-94%; 22-25 min, 94%. All chemicals used to prepare the mobile phases were LC-MS grade. Full MS spectra were recorded between 2 and 19 minutes using full scan in negative mode, under the following parameters: sheath gas flow rate, 55; auxiliary gas flow rate, 20; sweep gas flow rate, 2; spray voltage, 3 kV; capillary temperature, 400° C.; S-lens RF level, 50; resolution, 70,000; AGC target 3×10^6, maximum scan time 100 ms; scan range 70-1050 m/z. Spectral data were integrated manually using Xcalibur 3.0. For ^13C labeled plant samples, ^13C-isotopologues were detected based on a mass increase of 1.00335 atomic mass units for each ^13C atom. […]

[7] = test system: Nicotiana benthamiana leaves; experiment: Transient expression of DHS1b orthologs in Nicotiana benthamiana leaves, LCMS (FIG. 21); format: in vivo; conditions: 72 hours post-infiltration; for effect on levels of aromatic amino acids and their precursor molecules: vs YPet
From the text: To determine whether the grass DHS1b gene encodes a deregulated DHS in other grass species besides Brachypodium distachyon, BdDHS1b orthologs from Oryza sativa (OsDHS1b) and Sorghum bicolor (SbDHS1b) were cloned into the Golden Gate plant expression vector pICH47822 under control of the RuBisCO small subunit 3B promoter from Arabidopsis thaliana.^52 A 3× human influenza hemagglutinin tag was fused in frame to the C-terminus of the DHS genes to confirm the production of heterologous DHS protein.
Agrobacterium tumefaciens (strain GV3101) clones transformed with the OsDHS1b and SbDHS1b plant expression constructs were infiltrated into the leaves of Nicotiana benthamiana side-by-side with Agrobacterium clones expressing BdDHS1a, BdDHS1b, and the fluorescent protein YPet (negative control). The levels of phenylalanine, tyrosine, tryptophan, and three of their biosynthetic intermediates (shikimate, prephenate, and arogenate) were determined at 72 hours post-infiltration by liquid chromatography coupled to mass spectrometry (LCMS). […] On average, expression of BdDHS1b or OsDHS1b increased phenylalanine, tyrosine, and shikimate levels by 5 to 20-times compared to the YPet negative control (FIG. 21), whereas prephenate and arogenate rose to ˜100-times the control (FIG. 21). […] Based on these findings, BdDHS1b and OsDHS1b, but not SbDHS1b, encode DHS enzymes that can boost the accumulation of aromatic amino acids in planta upon heterologous expression.

[8] = DHS inhibition by arogenate; format: biochemical; conditions: FIG. 18
Description: as §2

[9] = DHS inhibition by tryptophan; format: biochemical; conditions: FIG. 18
Description: as §2

[10] = target: T1, Sorghum bicolor SbDHS2, SEQ ID NO: 13, recombinant (Sorghum bicolor, UniProt C5YJQ4); experiment: DHS activity: effector inhibition; format: biochemical; conditions: effector 0.5 mM
T1 construct: pET28a (NdeI/BamHI), E. coli KRX
T1 sequence (C5YJQ4 42-508): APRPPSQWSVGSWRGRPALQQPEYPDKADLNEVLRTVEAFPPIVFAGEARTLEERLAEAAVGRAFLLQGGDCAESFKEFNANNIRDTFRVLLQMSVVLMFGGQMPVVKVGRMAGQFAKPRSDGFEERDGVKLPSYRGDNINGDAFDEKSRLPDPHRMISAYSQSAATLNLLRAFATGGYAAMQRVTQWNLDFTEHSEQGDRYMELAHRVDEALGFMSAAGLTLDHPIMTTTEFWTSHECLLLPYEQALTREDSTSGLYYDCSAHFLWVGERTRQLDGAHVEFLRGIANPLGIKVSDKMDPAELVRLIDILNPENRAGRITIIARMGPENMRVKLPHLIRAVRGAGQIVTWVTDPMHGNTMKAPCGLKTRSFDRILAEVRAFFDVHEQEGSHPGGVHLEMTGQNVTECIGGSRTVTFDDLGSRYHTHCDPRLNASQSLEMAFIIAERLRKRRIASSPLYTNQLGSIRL
Description: as §3

[11] = target: T2, Sorghum bicolor SbDHSnc, SEQ ID NO: 15, recombinant (Sorghum bicolor, UniProt C5WRG8); experiment: DHS activity: effector inhibition; format: biochemical; conditions: effector 0.5 mM
T2 construct: synthesized into pET28a, E. coli KRX
T2 sequence (C5WRG8 36-499): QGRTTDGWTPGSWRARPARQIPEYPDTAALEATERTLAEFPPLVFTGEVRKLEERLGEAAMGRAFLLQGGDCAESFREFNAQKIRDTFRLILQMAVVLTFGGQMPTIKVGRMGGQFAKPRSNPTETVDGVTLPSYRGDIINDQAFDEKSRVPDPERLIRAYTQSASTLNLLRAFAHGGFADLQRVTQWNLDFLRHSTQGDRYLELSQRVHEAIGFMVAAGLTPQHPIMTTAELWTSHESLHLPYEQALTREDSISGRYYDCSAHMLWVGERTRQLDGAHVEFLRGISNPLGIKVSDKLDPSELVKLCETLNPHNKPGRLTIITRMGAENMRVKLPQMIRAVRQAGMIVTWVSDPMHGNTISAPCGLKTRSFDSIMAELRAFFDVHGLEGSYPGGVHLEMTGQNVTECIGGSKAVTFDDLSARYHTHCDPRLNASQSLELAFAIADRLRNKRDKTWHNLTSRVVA
Description: as §3

Molecule: O=C(O)Cc1cc(O)ccc1O [homogentisic acid]
- effect on grass DHS at 0.5 mM (grass DHS enzymes): little effect

Molecule: BdDHS1a: DHS1a enzyme of Brachypodium distachyon, SEQ ID NO: 1
- impact of effector combinations on DHS activity [5]: additional inhibition
- phenylalanine accumulation compared to tdTomato control [6]: did not significantly alter
- shikimate accumulation compared to tdTomato control [6]: did not significantly alter
- tryptophan accumulation compared to tdTomato control [6]: did not significantly alter
- tyrosine accumulation compared to tdTomato control [6]: did not significantly alter

Molecule: OsDHS1b: DHS1b enzyme of Oryza sativa, SEQ ID NO: 19
- prephenate and arogenate relative to the control [7]: ~100 times
- effect on levels of aromatic amino acids and their precursor molecules [7]: increased levels of all measured metabolites except for tryptophan

Molecule: SbDHS1b: DHS1b enzyme of Sorghum bicolor, SEQ ID NO: 11
- effect on levels of aromatic amino acids and their precursor molecules [7]: little or no significant effect

Molecule: BdDHS2: DHS2 enzyme of Brachypodium distachyon, SEQ ID NO: 5
- inhibition mechanism of arogenate for PEP [8]: mixed inhibition
- inhibition mechanism of arogenate in respect to E4P [8]: uncompetitive inhibition
- inhibition mechanism of tryptophan in respect to E4P [9]: uncompetitive inhibition
- impact of effector combinations on DHS activity [5]: additional inhibition
- phenylalanine accumulation compared to tdTomato control [6]: did not significantly alter
- shikimate accumulation compared to tdTomato control [6]: did not significantly alter
- tryptophan accumulation compared to tdTomato control [6]: did not significantly alter
- tyrosine accumulation compared to tdTomato control [6]: did not significantly alter

Second part, the molecule after the results:

- effect on grass DHS at 0.5 mM (grass DHS enzymes): little effect
Molecule: O=C(O)/C=C/c1ccc(O)c(O)c1 [caffeic acid]

- effect on grass DHS at 0.5 mM (grass DHS enzymes): little effect
Molecule: C=C(O[C@@H]1C=C(C(=O)O)C=C[C@H]1O)C(=O)O [chorismate]

- inhibition at 0.5 mM [1]: no strong inhibition
- effect on grass DHS at 0.5 mM (grass DHS enzymes): did not cause significant effects
Molecule: N[C@@H](Cc1ccccc1)C(=O)O [phenylalanine]

- H Coefficient (only E4P) ([2]; 1.5 mM PEP): 1.8
- kcat/EC50 (E4P) [3]: 28.3 s⁻¹ mM⁻¹
- H Coefficient (only E4P) ([3]; 1.5 mM PEP): 2.1
- Km ([3]; 1.5 mM PEP, 37° C., read-out: EC50 (E4P) (K0.5)): 400 µM
- H Coefficient (only E4P) ([4]; 1.5 mM PEP): 1.5
Molecule: O=C[C@H](O)[C@H](O)COP(=O)(O)O [E4P, erythrose 4-phosphate]

- effect of tryptophan ([2]; 0.5 mM (FIG. 4C)): no effect
- IC50 ([2]; IC50 (tryptophan), 1.5 mM PEP, 2 mM E4P): > 500 µM
- effect of tryptophan ([3]; 0.5 mM (FIG. 4C)): no effect
- IC50 ([3]; read-out: IC50 (tryptophan)): > 500 µM
- IC50 ([4]; 1.5 mM PEP, 2 mM E4P, read-out: IC50 (tryptophan)): 120 µM
- mode of inhibition with respect to E4P ([4]; FIG. 18): uncompetitive inhibition kinetics
- mode of inhibition with respect to PEP ([4]; FIG. 18): non-competitive inhibition
- inhibition at 500 µM [10]: 40 to 50%
- inhibition at 500 µM [11]: 40 to 50%
Molecule: N[C@@H](Cc1c[nH]c2ccccc12)C(=O)O [tryptophan]
